Results on 57 compounds are retold here after the Deep4Chem optical property database.

A short description of the data set: solvent given as SMILES.

On to `O=c1oc2ccccc2cc1-c1ccc(-c2ccc(-c3cc4ccccc4oc3=O)cc2)cc1`, for which the fluorescence lifetime (in ClCCl) is 9.47 ns.
Regarding `Cc1c(C)c(B(c2c(C)c(C)c(C#N)c(C)c2C)c2c(C)c(C)c(N3c4ccccc4Oc4ccccc43)c(C)c2C)c(C)c(C)c1C#N`, the fluorescence lifetime (in c1ccc([Si](c2ccccc2)(c2ccc(-n3c4ccccc4c4ccccc43)cc2)c2ccc(-n3c4ccccc4c4ccccc43)cc2)cc1) amounted to 32 ns.
Where the note is “in C1CCOC1”, `CC(C)(C)NC1=CC2=c3cc(NC(C)(C)C)c4nc(C(F)(F)C(F)(F)C(F)(F)F)nc5c(NC(C)(C)C)cc(c3c54)C3=CC(NC(C)(C)C)=C4N=C(C(F)(F)C(F)(F)C(F)(F)F)N=C1C4C32` (stereo unspecified) came in with a fluorescence lifetime of 6.1 ns.
In the case of `O=c1oc2ccccc2cc1/C=C/c1ccccc1`, the fluorescence lifetime (in CC#N) is 2.48 ns.
`CC(=O)Nc1ccc2c(c1)c(=O)c1ccccc1n2CCCCCC(=O)O` displayed a fluorescence lifetime (in O) of 17.1 ns.
Under “in CCCCCC”, `CC(C)(C)c1cc2ccc3cc(C(C)(C)C)cc4c(N(c5ccccc5)c5ccccc5)cc(c1)c2c34` yielded a fluorescence lifetime of 3.1 ns.
Take `CCCCCCC(CCCCCC)n1c(=O)c2c3ccc4cccc5c6cccc7ccc(c2c1=O)c(c76)c3c45`: the fluorescence lifetime (in C1CCCCC1) turned out to be 10.5 ns; the fluorescence lifetime (in CC#N) stood at 7.5 ns; the fluorescence lifetime (in CC(C)=O) is 7.8 ns; the fluorescence lifetime (in CCCCCC) is 9.5 ns; the fluorescence lifetime (in CCO) was 6.5 ns; the fluorescence lifetime (in CCOCC) is 9.6 ns. For the same compound, the fluorescence lifetime (in CS(C)=O) is 7.7 ns, the fluorescence lifetime (in Cc1ccccc1) is 9.2 ns, the fluorescence lifetime (in ClC(Cl)(Cl)Cl) was 8.7 ns and the fluorescence lifetime (in ClC(Cl)Cl) was determined as 6.7 ns.
Compound `CN(C)c1ccc2nc(-c3ccc(/C=N/Nc4ccccc4)cc3)sc2c1` yielded a fluorescence lifetime (in C1CCCCC1) of 2 ns.
Take `CSc1sc(C(N)=O)c2nnn(C)c(=O)c12`: the fluorescence lifetime by setting is: (in C1CCOC1) 19 ns; (in CC#N) 21 ns; (in CCO) 14 ns; (in CN(C)C=O) 15 ns; (in CO) 11 ns; (in CS(C)=O) 5.4 ns.
Regarding `F[B-]1(F)OC(c2ccc(C(F)(F)F)cc2)=Cc2cc(Cl)nc[n+]21`, the fluorescence lifetime by setting is: (in C1CCOC1) 0.13 ns; (in Cc1ccccc1) 0.21 ns.
Turning to `CCCCn1c2ccccc2c2c1c1c3ccccc3n(CCCC)c1c1c3ccccc3n(CCCC)c21`, the fluorescence lifetime (in C1CCOC1) stood at 6 ns.
`CC(C)(C)c1ccc(-c2nc3c4ccc(-c5cccc6ccccc56)cc4c4cc(-c5cccc6ccccc56)ccc4c3n2-c2ccc(C(C)(C)C)cc2)cc1` yielded a fluorescence lifetime (in ClCCl) of 7.4 ns.
Regarding `Cn1cc(-c2nc3ccccc3nc2/C=C/N2CCCC2)c2ccccc21`, the fluorescence lifetime is, setting by setting: (in C1CCCCC1) 1.27 ns; (in C1CCOC1) 5.12 ns; (in CC#N) 6.75 ns; (in CC(C)=O) 6.42 ns; (in CCO) 0.75 ns; (in CO) 0.19 ns. Further, the fluorescence lifetime worked out at 7.19 ns (in CS(C)=O), 3.62 ns (in Cc1ccccc1) and 7.01 ns (in ClCCl).
For `CC(=O)Nc1ccc(S(=O)(=O)O)c(/N=N/c2c(O)c3ccccc3n(C)c2=O)c1`, for the setting “in CS(C)=O”, the fluorescence lifetime turned out to be 0.06 ns.
`CCOC(=O)CN(CC(=O)OCC)c1ccc(-c2cc(-c3ccccn3)nc(-c3ccccn3)c2)cc1`: the fluorescence lifetime came out at 5.21 ns (in CC#N); 3.84 ns (in CCOC(C)=O); 6.02 ns (in CN(C)C=O); 6.76 ns (in CS(C)=O); 1.63 ns (in c1ccccc1).
In the case of `Cc1cc(=O)oc2ccc3ccc(O)cc3c12`, the fluorescence lifetime (in CC#N) is 5.6 ns.
Take `CC(C)c1cccc(C(C)C)c1N1C(=O)c2cccc3c(Oc4ccc(C(C)(C)C)cc4)ccc(c23)C1=O`: where the note is “in ClCCl”, the fluorescence lifetime is 1.12 ns.
Take `COC(=O)c1[nH]c(-c2ccc(OC)cc2)c2nnc3ccc(OC)cc3c12`: for the setting “in ClCCl”, the fluorescence lifetime turned out to be 6.1 ns.
On to `CC(C)(C)NC(=O)c1cc2ccc3cccc4ccc(c1C(=O)NC(C)(C)C)c2c34`, for which, under “in ClC(Cl)Cl”, the fluorescence lifetime was 17.2 ns.
`C[Si]1(C)c2ccccc2-c2ccccc21` registered a fluorescence lifetime (in ClCCl) of 0.15 ns.
Same read-out and setting: for `F[B-]1(F)n2c(c3cccc4cccc2c43)=Nc2ccc3ccccc3[n+]21` the value was 6.1 ns; for `COc1ccc2c(c1)c1cc(OC)ccc1c1c2c2c(C(=O)NC(C)(C)C)ccc(C(=O)NC(C)(C)C)c2c2c3ccc(OC)cc3c3cc(OC)ccc3c21`, 0.85 ns.
For the compound `CCc1cc(CC)cc(-n2c3ccccc3c3cc4c(cc32)c2ccccc2n4-c2cc(CC)cc(CC)c2)c1`, the fluorescence lifetime (in ClC(Cl)Cl) amounted to 3.69 ns.
`CCCCCCN1C(=O)c2cccc3c(-c4ccc(-c5ccc(-c6ccc7c8c(cccc68)C(=O)N(CCCCCC)C7=O)s5)s4)ccc(c23)C1=O` came in with a fluorescence lifetime (in ClC(Cl)Cl) of 0.535 ns.
Still for that read-out and setting: for `N#CC(C#N)=Cc1ccc(-c2ccc(N(c3ccccc3)c3ccccc3)cc2)s1` the value was 2.5 ns.
In turn, `C#CCn1c2ccccc2c2cc(/C=C/c3c(Cl)c(C)c4n3[B-](F)(F)[N+]3=C(C)C(Cl)=C(C)C3=C4c3ccc(I)cc3)ccc21` came in with a fluorescence lifetime (in CC#N) of 3.95 ns, a fluorescence lifetime (in CS(C)=O) of 3.06 ns and a fluorescence lifetime (in ClC(Cl)Cl) of 4.24 ns.
As for `N#Cc1ccc(/C=C/c2ccc(C=C(c3ccccc3)c3ccccc3)cc2)cc1`, the fluorescence lifetime (in C1CCOC1) came out at 0.5 ns.
As for `N#Cc1ccc(/C2=C3N=C(C(c4ccccc4)=C/3c3ccccc3)/C(c3ccc(C#N)cc3)=c3\[nH]/c(c(-c4ccccc4)c3-c3ccccc3)=C(/c3ccc(C#N)cc3)C3=N/C(=C(/c4ccc(C#N)cc4)c4[nH]c2c(-c2ccccc2)c4-c2ccccc2)C(c2ccccc2)=C3c2ccccc2)cc1`, the fluorescence lifetime (in ClCCl) is 0.416 ns.
Same read-out and setting: under `CCOC(=O)c1ccc(C2=Cc3cc4ccccc4cc3P2(=O)c2ccccc2)cc1` (stereo unspecified) stands 2.8 ns.
`N#Cc1nc(-c2ccc(N3c4ccccc4Oc4ccccc43)cc2)c(-c2ccc(N3c4ccccc4Oc4ccccc43)cc2)nc1C#N` came in with a fluorescence lifetime (in c1cc(-c2cccc(-n3c4ccccc4c4ccccc43)c2)cc(-n2c3ccccc3c3ccccc32)c1) of 21 ns.
`Cc1cc(C)n2c1C=C1c3ccccc3C(c3cccn3C)=[N+]1[B-]2(F)F` displayed a fluorescence lifetime (in ClCCl) of 6.91 ns.
Take `CC(C)(C)c1cc2cc(N(c3ccccc3)c3ccccc3)c3cc(C(C)(C)C)cc4cc(N(c5ccccc5)c5ccccc5)c(c1)c2c43`: the fluorescence lifetime (in CCCCCC) was determined as 4.6 ns.
Regarding `CCN(CC)c1ccc2c(c1)oc(=O)c1cc3c(-c4ccccc4)nn(C)c3nc12`, where the note is “in ClCCl”, the fluorescence lifetime turned out to be 18.9 ns.
Compound `[O-]c1ccc2ccccc2c1` yielded a fluorescence lifetime (in O) of 9.43 ns.
In turn, `c1cc2c3c(c1)ccc1[n+]3[B-]3(Oc4cccc5ccc6[n+](c45)[B-](O2)(O3)n2c-6cc3c4ccccc4c4ccccc4c32)n2c-1cc1c3ccccc3c3ccccc3c12` showed a fluorescence lifetime (in ClCCl) of 3.65 ns.
The compound `COc1cc(OC)c2c(c1)C(=O)c1cc(OC)cc(OC)c1-2` had a fluorescence lifetime (in C1CCCCC1) of 0.8 ns.
Compound `COc1ccc(N(c2ccc(OC)cc2)c2ccc(-c3ccc(-c4ccc(-c5cccs5)c5nsnc45)s3)cc2)cc1` had a fluorescence lifetime (in ClC(Cl)Cl) of 6.55 ns.
Under “in C1CCCCC1”, `Cc1cccc(-c2cccc(C)c2)c1` showed a fluorescence lifetime of 18 ns.
In turn, `CCCCCCCCCCCCn1cccc1/C=C/c1ccc(/C=C/c2cccn2CCCCCCCCCCCC)cc1` registered a fluorescence lifetime (in Cc1ccccc1) of 1.06 ns.
`CC(C)(C)NC(=O)c1ccc2ccc3cccc4ccc1c2c34` displayed a fluorescence lifetime (in ClC(Cl)Cl) of 7.55 ns.
`F[B-]1(F)OC(c2ccc3c(c2)Cc2ccccc2-3)=CC(c2ccccc2)=[O+]1`: the fluorescence lifetime (in CC#N) was 2.6 ns.
`COc1ccccc1C1=C2C(C)=CC(C)=[N+]2[B-](F)(F)n2c(C)cc(C)c21`: the fluorescence lifetime (in C1CCOC1) turned out to be 6.42 ns and the fluorescence lifetime (in CCCCCC) was found to be 5.78 ns.
On to `N#Cc1ccc(C#Cc2ccc(C#Cc3ccccc3C#N)cc2C#N)cc1`, for which the fluorescence lifetime (in ClC(Cl)Cl) turned out to be 1.83 ns.
For the compound `CCCN1/C(=C\c2c(-c3ccc(N(C)C)cc3)c(=O)c2=O)C=Cc2ccccc21`, the fluorescence lifetime was 1.01 ns (in C1CCCCC1), 2.46 ns (in Cc1ccccc1) and 0.09 ns (in ClCCl).
In the case of `O=Cc1cnc(-c2c3ccccc3cc3ccccc23)nc1`, the fluorescence lifetime reads like this: (in CCO) 2.3 ns; (in ClCCl) 6.3 ns.
Consider `CN(C)c1ccc(-c2nc3c(c4c2-c2ccccc2CC4)-c2ccccc2CC3)cc1`, for which the fluorescence lifetime worked out at 0.91 ns (in C1CCOC1); 1.19 ns (in CC#N); 0.75 ns (in CCOC(C)=O); 2.13 ns (in CS(C)=O); 0.27 ns (in Cc1ccccc1); 0.8 ns (in ClCCl).
Turning to `COc1cc(OC)cc(C2=[O+][B-](F)(F)OC(c3ccccc3)=C2)c1`, the fluorescence lifetime (in ClCCl) was 6.87 ns.
Where the note is “in ClCCl”, `c1ccc(C2=Nc3cccc4[n+]3[B-](c3ccccc3)(N2)NC(c2ccccc2)=N4)cc1` showed a fluorescence lifetime of 2.5 ns.
On to `COc1ccc2c(-c3nc(-c4ccccc4)no3)cc(=O)oc2c1`, for which the fluorescence lifetime by setting is: (in CCO) 6.4 ns; (in ClC(Cl)Cl) 4.8 ns.
For the setting “in CC#N”, `COc1ccc(-n2c(C)ccc2C)cc1` came in with a fluorescence lifetime of 5 ns.
Consider `COCCOCCOCCOCC(COCCOCCOCCOC)Oc1cc(/C=C/c2ccc(/C=C(\C#N)C(=O)c3ccccc3)cc2)c(OC(COCCOCCOCCOC)COCCOCCOCCOC)cc1/C=C/c1ccc(/C=C(\C#N)C(=O)c2ccccc2)cc1`, for which the fluorescence lifetime (in ClCCl) was determined as 1 ns.
Regarding `CCn1c2ccccc2c2cc(-c3cc(-c4ccc5c(c4)c4ccccc4n5CC)nc(C#N)n3)ccc21`, the fluorescence lifetime (in C1CCOC1) was 2.57 ns.
As for `c1ccc(N(c2ccccc2)c2ccc(-c3ccc4c(c3)C3(c5ccccc5Oc5ccccc53)c3cc(-c5ccc(N(c6ccccc6)c6ccccc6)cc5)ccc3-4)cc2)cc1`, the fluorescence lifetime (in ClCCl) is 1.2 ns.
With `CCCCC(CC)CN1C(=O)C2=C(c3ccc(-c4ccc(C5=C6C(C)=CC(C)=[N+]6[B-](F)(F)n6c(C)cc(C)c65)cc4)s3)N(CC(CC)CCCC)C(=O)C2=C1c1cccs1` (stereo unspecified), where the note is “in Cc1ccccc1”, the fluorescence lifetime came out at 3.87 ns.
Under “in O=P(c1ccccc1)(c1ccccc1)c1ccc2oc3ccc(P(=O)(c4ccccc4)c4ccccc4)cc3c2c1”, `c1ccc(-c2nc(-c3ccccc3)nc(-c3cc(-n4c5ccccc5c5ncccc54)c(-n4c5ccccc5c5ncccc54)c(-n4c5ccccc5c5ncccc54)c3)n2)cc1` yielded a fluorescence lifetime of 14.5 ns.
Under “in ClC(Cl)Cl”, `Cc1cc(C)c(C2=C3C=CC=[N+]3[B-]3(c4ccccc4)Oc4cc(O)cc5c6ccc(C)cc6c6cc2n3c6c45)c(C)c1` (stereo unspecified) came in with a fluorescence lifetime of 3 ns.
As to `CCOC(=O)c1c(CSc2ccccc2)n(C)c2cc(Br)c(O)c(CN(C)C)c12`, the fluorescence lifetime (in O) was found to be 3 ns.
